According to paper PMC11224111, “Optimizing the pharmacokinetics of an ^211At-labeled RGD peptide with an albumin-binding moiety via the administration of an albumin-binding inhibitor” (European Journal of Nuclear Medicine and Molecular Imaging, 2024):
Where “and” joins values, the source holds several entries; their conditions need not be identical. Equal values may be shown once.

Tested on: U-87 MG tumor-bearing mice
Assay: Biodistribution in U-87 MG tumor-bearing mice with IPBA
Format: in vivo
Details: IPBA 10 eq at 1 h postinjection
Description: To prepare tumor-bearing mice, 5 × 10^6 of U-87 MG cells were subcutaneously inoculated into the right shoulder of 4-week-old female BALB/c nude mice (13–15 g, Japan SLC, Inc.) as previously reported. At approximately 10-day postinoculation of U-87 MG cells, they were used for each experiment after tumor size reached 0.3–0.5 cm^3.
At 1-h postinjection of [^211At]1 (37 kBq) and [^125I]2 (37 kBq), IPBA (1.9 mg, 6.1 µmol) was administered at 10 molar equivalent of blood albumin. Mice were sacrificed at 65-, 70-min, 2-, 4-, 12-, and 24-h postinjection of [^211At]1 and [^125I]2. Tissues of interest were removed and weighed, and radioactivity counts of ^125I and ^211At were determined with an auto well gamma counter (ARC-7010; Hitachi Medical, Ltd., Tokyo, Japan) and corrected for background radiation. To determine the radioactivity excreted from the body for 24 h, mice were housed in metabolic cages (Metabolica, Sugiyama-Gen Co., Ltd., Tokyo, Japan).

Ga-DOTA-K([^211At]APBA)-c(RGDfK) [[^211At]1]
Radioactivity, Blood (65 min after administration): 13.96 (0.18) % injected activity per gram | Radioactivity, Bone (65 min after administration): 4.07 (0.26) % injected activity per gram | Radioactivity, Brain (65 min after administration): 0.36 (0.00) % injected activity per gram | Radioactivity, Heart (65 min after administration): 5.28 (0.29) % injected activity per gram | Radioactivity, Kidney (65 min after administration): 16.15 (1.45) % injected activity per gram | Radioactivity, L. intestine (65 min after administration): 3.05 (0.10) % injected activity per gram | Radioactivity, Liver (65 min after administration): 5.20 (0.50) % injected activity per gram | Radioactivity, Lung (65 min after administration): 10.81 (0.60) % injected activity per gram | Radioactivity, Muscle (65 min after administration): 2.80 (0.39) % injected activity per gram | Radioactivity, Neck (65 min after administration): 0.04 (0.02) % injected activity | Radioactivity, Pancreas (65 min after administration): 2.82 (0.16) % injected activity per gram | Radioactivity, S. intestine (65 min after administration): 4.69 (0.26) % injected activity per gram | Radioactivity, Spleen (65 min after administration): 4.06 (0.21) % injected activity per gram | Radioactivity, Stomach (65 min after administration): 1.12 (0.28) % injected activity | Radioactivity, Tumor (65 min after administration): 10.92 (0.34) % injected activity per gram | Radioactivity, Blood (70 min after administration): 9.85 (0.55) % injected activity per gram | Radioactivity, Bone (70 min after administration): 2.22 (0.60) % injected activity per gram | Radioactivity, Brain (70 min after administration): 0.26 (0.02) % injected activity per gram | Radioactivity, Heart (70 min after administration): 3.66 (0.27) % injected activity per gram | Radioactivity, Kidney (70 min after administration): 11.02 (1.44) % injected activity per gram | Radioactivity, L. intestine (70 min after administration): 2.25 (0.27) % injected activity per gram | Radioactivity, Liver (70 min after administration): 3.72 (0.52) % injected activity per gram | Radioactivity, Lung (70 min after administration): 7.40 (0.85) % injected activity per gram | Radioactivity, Muscle (70 min after administration): 1.60 (0.16) % injected activity per gram | Radioactivity, Neck (70 min after administration): 0.05 (0.00) % injected activity | Radioactivity, Pancreas (70 min after administration): 1.95 (0.14) % injected activity per gram | Radioactivity, S. intestine (70 min after administration): 3.61 (0.36) % injected activity per gram | Radioactivity, Spleen (70 min after administration): 2.77 (0.39) % injected activity per gram | Radioactivity, Stomach (70 min after administration): 0.78 (0.17) % injected activity | Radioactivity, Tumor (70 min after administration): 10.79 (1.09) % injected activity per gram | Radioactivity, Blood (2 h after administration): 8.06 (0.39) % injected activity per gram | Radioactivity, Bone (2 h after administration): 3.04 (0.30) % injected activity per gram | Radioactivity, Heart (2 h after administration): 2.86 (0.31) % injected activity per gram | Radioactivity, Kidney (2 h after administration): 8.22 (0.51) % injected activity per gram | Radioactivity, L. intestine (2 h after administration): 2.35 (0.97) % injected activity per gram | Radioactivity, Liver (2 h after administration): 2.45 (0.21) % injected activity per gram | Radioactivity, Lung (2 h after administration): 5.67 (0.59) % injected activity per gram | Radioactivity, Muscle (2 h after administration): 1.96 (0.68) % injected activity per gram | Radioactivity, Neck (2 h after administration): 0.04 (0.02) % injected activity | Radioactivity, Pancreas (2 h after administration): 1.64 (0.14) % injected activity per gram | Radioactivity, S. intestine (2 h after administration): 2.42 (0.70) % injected activity per gram | Radioactivity, Spleen (2 h after administration): 2.34 (0.18) % injected activity per gram | Radioactivity, Stomach (2 h after administration): 0.81 (0.05) % injected activity | Radioactivity, Tumor (2 h after administration): 13.38 (1.48) % injected activity per gram | Radioactivity, Blood (4 h after administration): 3.04 (0.26) % injected activity per gram | Radioactivity, Bone (4 h after administration): 1.60 (0.14) % injected activity per gram | Radioactivity, Brain (4 h after administration): 0.18 (0.02) % injected activity per gram | Radioactivity, Heart (4 h after administration): 1.44 (0.10) % injected activity per gram | Radioactivity, Kidney (4 h after administration): 5.32 (0.35) % injected activity per gram | Radioactivity, L. intestine (4 h after administration): 4.03 (1.33) % injected activity per gram | Radioactivity, Liver (4 h after administration): 1.34 (0.05) % injected activity per gram | Radioactivity, Lung (4 h after administration): 3.34 (0.11) % injected activity per gram | Radioactivity, Muscle (4 h after administration): 0.61 (0.01) % injected activity per gram | Radioactivity, Neck (4 h after administration): 0.02 (0.00) % injected activity | Radioactivity, Pancreas (4 h after administration): 0.93 (0.26) % injected activity per gram | Radioactivity, S. intestine (4 h after administration): 3.03 (0.65) % injected activity per gram | Radioactivity, Spleen (4 h after administration): 2.18 (0.13) % injected activity per gram | Radioactivity, Stomach (4 h after administration): 0.75 (0.01) % injected activity | Radioactivity, Tumor (4 h after administration): 12.48 (0.95) % injected activity per gram | Radioactivity, Blood (12 h after administration): 2.71 (0.21) % injected activity per gram | Radioactivity, Bone (12 h after administration): 1.10 (0.24) % injected activity per gram | Radioactivity, Brain (12 h after administration): 0.12 (0.01) % injected activity per gram | Radioactivity, Heart (12 h after administration): 1.49 (0.11) % injected activity per gram | Radioactivity, Kidney (12 h after administration): 3.12 (0.14) % injected activity per gram | Radioactivity, L. intestine (12 h after administration): 0.89 (0.06) % injected activity per gram | Radioactivity, Liver (12 h after administration): 1.04 (0.12) % injected activity per gram | Radioactivity, Lung (12 h after administration): 3.50 (0.28) % injected activity per gram | Radioactivity, Muscle (12 h after administration): 0.54 (0.02) % injected activity per gram | Radioactivity, Neck (12 h after administration): 0.09 (0.03) % injected activity | Radioactivity, Pancreas (12 h after administration): 0.92 (0.08) % injected activity per gram | Radioactivity, S. intestine (12 h after administration): 1.01 (0.14) % injected activity per gram | Radioactivity, Spleen (12 h after administration): 1.41 (0.12) % injected activity per gram | Radioactivity, Stomach (12 h after administration): 0.72 (0.09) % injected activity | Radioactivity, Tumor (12 h after administration): 7.73 (0.76) % injected activity per gram | Radioactivity, Blood (24 h after administration): 2.21 (0.38) % injected activity per gram | Radioactivity, Bone (24 h after administration): 0.64 (0.16) % injected activity per gram | Radioactivity, Brain (24 h after administration): 0.26 (0.31) % injected activity per gram | Radioactivity, Heart (24 h after administration): 0.90 (0.31) % injected activity per gram | Radioactivity, Kidney (24 h after administration): 1.91 (0.38) % injected activity per gram | Radioactivity, L. intestine (24 h after administration): 0.41 (0.24) % injected activity per gram | Radioactivity, Liver (24 h after administration): 0.73 (0.17) % injected activity per gram | Radioactivity, Lung (24 h after administration): 2.31 (0.34) % injected activity per gram | Radioactivity, Muscle (24 h after administration): 0.32 (0.07) % injected activity per gram | Radioactivity, Neck (24 h after administration): 0.04 (0.01) % injected activity | Radioactivity, Pancreas (24 h after administration): 0.41 (0.12) % injected activity per gram | Radioactivity, S. intestine (24 h after administration): 0.46 (0.22) % injected activity per gram | Radioactivity, Spleen (24 h after administration): 1.22 (0.27) % injected activity per gram | Radioactivity, Stomach (24 h after administration): 0.61 (0.18) % injected activity | Radioactivity, Tumor (24 h after administration): 6.15 ± 0.20 % injected activity per gram and 6.15 (0.20) % injected activity per gram | Radioactivity excreted, Feces (until 24 h postinjection): 4.09 ± 1.69 % injected activity and 4.09 (1.69) % injected activity | Radioactivity excreted, Urine (until 24 h postinjection): 38.98 ± 5.39 % injected activity and 38.98 (5.39) % injected activity
